Assay results: PubChem BioAssay AID1963426 (Molecular Pharmacology Branch, DTP, NCI, 2024)

Tested on: 186277-243-T-J2-PDC complex spheroid growth, % test/control
Experiment: Anticancer human tumor 186277-243-T-J2-PDC patient-derived colon adenocarcinoma cell line growth inhibition [Asc]
Settings: for IC50: curve of first compound; for viability, T/C: stronger effect = lower value
Procedure, shortened: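 Stromal components (HUVEC and hMSC) are co-assembled with the cancer cells into multicellular spheroids. Drugs are then added singly or paired, at concentrations falling by half-log increments from a clinically achievable maximum, capped at 10 microM without known Cmax.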

[1] = second compound 0.1 µM, first compound 0.0316 µM
[2] = second compound 0.1 µM, first compound 0.1 µM
[3] = second compound 0.1 µM, first compound 0.316 µM
[4] = second compound 0.1 µM, first compound 1 µM
[5] = second compound 0.1 µM, first compound 3.16 µM
[6] = second compound 0.1 µM, first compound 10 µM
[7] = second compound 0.316 µM, first compound 0.0316 µM
[8] = second compound 0.316 µM, first compound 0.1 µM
[9] = second compound 0.316 µM, first compound 0.316 µM
[10] = second compound 0.316 µM, first compound 1 µM
[11] = second compound 0.316 µM, first compound 3.16 µM
[12] = second compound 0.316 µM, first compound 10 µM
[13] = second compound 1 µM, first compound 0.0316 µM
[14] = second compound 1 µM, first compound 0.1 µM
[15] = second compound 1 µM, first compound 0.316 µM
[16] = second compound 1 µM, first compound 1 µM
[17] = second compound 1 µM, first compound 3.16 µM
[18] = second compound 1 µM, first compound 10 µM
[19] = second compound 3.16 µM, first compound 0.0316 µM
[20] = second compound 3.16 µM, first compound 0.1 µM
[21] = second compound 3.16 µM, first compound 0.316 µM
[22] = second compound 3.16 µM, first compound 1 µM
[23] = second compound 3.16 µM, first compound 3.16 µM
[24] = second compound 3.16 µM, first compound 10 µM
[25] = second compound 10 µM, first compound 0.0316 µM
[26] = second compound 10 µM, first compound 0.1 µM
[27] = second compound 10 µM, first compound 0.316 µM
[28] = second compound 10 µM, first compound 1 µM
[29] = second compound 10 µM, first compound 3.16 µM
[30] = second compound 10 µM, first compound 10 µM
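Also: spheroids exposed to agents for 7 days.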
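For viability, T/C in this document: 100% = DMSO vehicle control wells.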

IC50 (second compound 0.1 µM)	IC50 (second compound 0.316 µM)	IC50 (second compound 1 µM)	IC50 (second compound 3.16 µM)	IC50 (second compound 10 µM)	Compound	viability, T/C [1]	viability, T/C [2]	viability, T/C [3]	viability, T/C [4]	viability, T/C [5]	viability, T/C [6]	viability, T/C [7]	viability, T/C [8]	viability, T/C [9]	viability, T/C [10]	viability, T/C [11]	viability, T/C [12]	viability, T/C [13]	viability, T/C [14]	viability, T/C [15]	further results
5550 nM	4400 nM	2590 nM	2180 nM	2370 nM	C=C(F)C(=O)N1CCN(c2nc(OCC3CCCN3C)nc3c2CCN(c2cccc4cccc(Cl)c24)C3)CC1CC#N (stereo not given) + Cc1c(S(C)(=O)=O)c(-c2cc(F)cc(N3CCN(c4ccc(NS(=O)(=O)c5ccc(NC(CCN6CCC(C(=O)OCCCP(=O)(O)O)CC6)CSc6ccccc6)c(S(=O)(=O)C(F)(F)F)c5)cc4)CC3)c2)c(-c2ccc(Cl)cc2)n1C(C)C	109%	111%	110%	110%	97.2%	0.54%	106%	109%	108%	111%	70%	0.32%	115%	119%	107%	viability, T/C [16]: 124%; viability, T/C [17]: 36.1%; viability, T/C [18]: 0.51%; viability, T/C [19]: 105%; viability, T/C [20]: 108%; viability, T/C [21]: 112%; viability, T/C [22]: 104%; viability, T/C [23]: 24.2%; viability, T/C [24]: 0.16%; viability, T/C [25]: 120%; viability, T/C [26]: 106%; viability, T/C [27]: 116%; viability, T/C [28]: 107%; viability, T/C [29]: 31.2%; viability, T/C [30]: 0.25%
178 nM	127 nM	114 nM	91.9 nM	87.3 nM	C#Cc1c(F)ccc2cc(O)cc(-c3ncc4c(N5CC6CCC(C5)N6)nc(OCC56CCCN5CC(F)C6)nc4c3F)c12 (stereo not given) + Cc1c(S(C)(=O)=O)c(-c2cc(F)cc(N3CCN(c4ccc(NS(=O)(=O)c5ccc(NC(CCN6CCC(C(=O)OCCCP(=O)(O)O)CC6)CSc6ccccc6)c(S(=O)(=O)C(F)(F)F)c5)cc4)CC3)c2)c(-c2ccc(Cl)cc2)n1C(C)C	91.5%	69.7%	30.2%	11.3%	6.43%	5.27%	115%	56.9%	23.6%	7.76%	3.89%	3.47%	86.3%	54%	18.7%	viability, T/C [16]: 5.48%; viability, T/C [17]: 2.03%; viability, T/C [18]: 1.87%; viability, T/C [19]: 87%; viability, T/C [20]: 47.1%; viability, T/C [21]: 8.29%; viability, T/C [22]: 2.66%; viability, T/C [23]: 1.51%; viability, T/C [24]: 1.34%; viability, T/C [25]: 76.1%; viability, T/C [26]: 46.5%; viability, T/C [27]: 5.7%; viability, T/C [28]: 1.72%; viability, T/C [29]: 0.91%; viability, T/C [30]: 0.74%
> 10000 nM	> 10000 nM	7980 nM	4390 nM	4740 nM	O=C(c1cc(Cc2n[nH]c(=O)c3ccccc23)ccc1F)N1CCN(C(=O)C2CC2)CC1 + Cc1c(S(C)(=O)=O)c(-c2cc(F)cc(N3CCN(c4ccc(NS(=O)(=O)c5ccc(NC(CCN6CCC(C(=O)OCCCP(=O)(O)O)CC6)CSc6ccccc6)c(S(=O)(=O)C(F)(F)F)c5)cc4)CC3)c2)c(-c2ccc(Cl)cc2)n1C(C)C	96.9%	87.8%	99.3%	114%	103%	91.8%	89.1%	101%	96.2%	104%	86.3%	65.8%	99.7%	101%	96.2%	viability, T/C [16]: 96.5%; viability, T/C [17]: 86.7%; viability, T/C [18]: 40.7%; viability, T/C [19]: 96%; viability, T/C [20]: 93.5%; viability, T/C [21]: 109%; viability, T/C [22]: 93%; viability, T/C [23]: 60.5%; viability, T/C [24]: 24%; viability, T/C [25]: 92.6%; viability, T/C [26]: 95.1%; viability, T/C [27]: 96.5%; viability, T/C [28]: 88.9%; viability, T/C [29]: 67.6%; viability, T/C [30]: 17.9%
